Reference: patent publication US20230357239A1, “PYRIDO[2,3-D]PYRIMIDIN-4-AMINES AS SOS1 INHIBITORS” (Bayer Aktiengesellschaft, priority 2020, published 2023)

molecular target: human SOS1 (SOS1) with human K-RasG12C (Homo sapiens (Human), UniProt Q07889); test: hK-RasG12C interaction assay with hSOS1 (HTRF); assay type: binding; conditions: GST-hK-RasG12C and His-hSOS1, 60 min incubation at 20° C, mean, read-out: K-RasG12C - SOS interaction assay IC50 - [mol/l] (mean)
Method: Biochemical Assay: hK-RasG12C Interaction Assay with hSOS1
This assay quantifies the equilibrium interaction of human SOS1 (SOS1) with human K-Ras^G12C (K-RasG12C). Detection of the interaction is achieved by measuring homogenous time-resolved fluorescence resonance energy transfer (HTRF) from antiGST-Europium (FRET donor) bound to GST-K-RasG12C to anti-6His-XL665 bound to His-tagged hSOS1 (FRET-acceptor).
The assay buffer containes 5 mM HEPES pH 7.4 (Applichem), 150 mM NaCl (Sigma), 10 mM EDTA (Promega), 1 mM DTT (Thermofisher), 0.05% BSA Fraction V, pH 7.0, (ICN Biomedicals), 0.0025% (v/v) Igepal (Sigma) and 100 mM KF (FLUKA).
Concentrations of protein batches used are optimized to be within the linear range of the HTRF signal. A Ras working solution is prepared in assay buffer containing typically 10 nM GST-hK-RasG12C and 2 nM antiGST-Eu(K) (Cisbio, France). A SOS1 working solution is prepared in assay buffer containing typically 20 nM His-hSOS1 and 10 nM anti-6His-XL665 (Cisbio, France). An inhibitor control solution is prepared in assay buffer containing 10 nM anti-6His-XL665 without SOS1.
Fifty nl of a 100-fold concentrated solution of the test compound in DMSO are transferred into a black microtiter test plate (384 or 1536, Greiner Bio-One, Germany).
For this, either a Hummingbird liquid handler (Digilab, MA, USA) or an Echo acoustic system (Labcyte, CA, USA) is used.
All steps of the assay are performed at 20° C. A volume of 2.5 μl of the Ras working solution is added to all wells of the test plate using a Multidrop dispenser (Thermo Labsystems). After 2 min preincubation, 2.5 μl of the SOS1 working solution are added to all wells except for those wells at the side of the test plate that are subsequently filled with 2.5 μl of the inhibitor control solution. After 60 min incubation the fluorescence is measured with a Pherastar (BMG, Germany) using the HTRF module (excitation 337 nm, emission 1: 620 nm, emission 2: 665 nm).
The ratiometric data (emission 2 divided by emission 1) are normalized using the controls (DMSO=0% inhibition, inhibition control wells with inhibitor control solution=100% inhibition). […] IC50 values are calculated by 4-Parameter fitting using a commercial software package (Genedata Screener, Switzerland).

Sequence of human SOS1 (SOS1) with human K-RasG12C (Q07889 564-1049): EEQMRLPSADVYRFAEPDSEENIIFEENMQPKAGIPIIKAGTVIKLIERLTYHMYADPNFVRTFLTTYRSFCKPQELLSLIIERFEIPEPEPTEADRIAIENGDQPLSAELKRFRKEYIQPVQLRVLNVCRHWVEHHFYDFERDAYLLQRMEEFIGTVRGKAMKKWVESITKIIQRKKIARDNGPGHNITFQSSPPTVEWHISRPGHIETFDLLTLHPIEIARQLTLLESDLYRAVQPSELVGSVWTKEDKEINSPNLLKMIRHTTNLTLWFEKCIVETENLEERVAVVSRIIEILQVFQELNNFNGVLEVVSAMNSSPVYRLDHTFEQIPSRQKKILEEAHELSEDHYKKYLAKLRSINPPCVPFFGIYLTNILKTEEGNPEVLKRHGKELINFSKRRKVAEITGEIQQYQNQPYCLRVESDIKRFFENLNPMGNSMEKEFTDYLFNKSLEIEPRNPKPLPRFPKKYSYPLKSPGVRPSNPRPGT

Structure (SMILES) | IC50
CC(=O)N1CC2(C1)CN(c1cc3c(N[C@H](C)c4cccc(C(F)(F)F)c4C)nc(C)nc3nc1C(F)(F)F)C2 [Example 71, 1-{6-[2-methyl-4-({(1R)-1-[2-methyl-3-(trifluoromethyl)phenyl]ethyl}amino)-7-(trifluoromethyl)pyrido[2,3-d]pyrimidin-6-yl]-2,6-diazaspiro[3.3]heptan-2-yl}ethan-1-one] | 5.78 nM
CC(=O)N1CC2(CC=C(c3cnc4nc(C)nc(N[C@H](C)c5cccc(C(F)(F)F)c5C)c4c3)CC2)C1 [Example 27, 1-{7-[2-methyl-4-({(1R)-1-[2-methyl-3-(trifluoromethyl)phenyl]ethyl}amino)pyrido[2,3-d]pyrimidin-6-yl]-2-azaspiro[3.5]non-6-en-2-yl}ethan-1-one] | 7.96 nM
CC(=O)N[C@@H]1CCN(c2cnc3nc(C)nc(N[C@H](C)c4cccc(C(F)(F)C(C)(C)O)c4F)c3c2)C1 [Example 55, N-{(3R)-1-[4-({(1R)-1-[3-(1,1-difluoro-2-hydroxy-2-methylpropyl)-2-fluorophenyl]ethyl}amino)-2-methylpyrido[2,3-d]pyrimidin-6-yl]pyrrolidin-3-yl}acetamide] | 4.46 nM
CC(=O)N1CC2(C1)CN(c1cc3c(N[C@H](C)c4cccc(C(F)(F)C(C)(C)O)c4F)nc(C)nc3nc1C(F)(F)F)C2 [Example 70, 1-{6-[4-({(1R)-1-[3-(1,1-difluoro-2-hydroxy-2-methylpropyl)-2-fluorophenyl]ethyl}amino)-2-methyl-7-(trifluoromethyl)pyrido[2,3-d]pyrimidin-6-yl]-2,6-diazaspiro[3.3]heptan-2-yl}ethan-1-one] | 5.47 nM
COc1nc2nc(C)nc(N[C@H](C)c3cccc(C(F)(F)F)c3C)c2cc1N1CCCS1(=O)=O [Example 23, 2-[7-methoxy-2-methyl-4-({(1R)-1-[2-methyl-3-(trifluoromethyl)phenyl]ethyl}amino)pyrido[2,3-d]pyrimidin-6-yl]-1 lambda^6,2-thiazolidine-1,1-dione] | 2640 nM
CC(=O)N1CCC(c2cc3c(N[C@H](C)c4cccc(C(F)F)c4F)nc(C)nc3nc2C)CC1 [Example 57, 1-{4-[4-({(1R)-1-[3-(difluoromethyl)-2-fluorophenyl]ethyl}amino)-2,7-dimethylpyrido[2,3-d]pyrimidin-6-yl]piperidin-1-yl}ethan-1-one] | 9.81 nM
CC(=O)N1CC=C(c2cnc3nc(C)nc(N[C@H](C)c4cccc(C(F)(F)C(C)(C)O)c4F)c3c2)CC1 [Example 46, 1-{4-[4-({(1R)-1-[3-(1,1-difluoro-2-hydroxy-2-methylpropyl)-2-fluorophenyl]ethyl}amino)-2-methylpyrido[2,3-d]pyrimidin-6-yl]-3,6-dihydropyridin-1(2H)-yl}ethan-1-one] | 2.7 nM
CC(=O)N1CCN(c2cnc3nc(C)nc(N[C@H](C)c4cccc(C(F)(F)F)c4C)c3c2)C(=O)C1 [Example 61, 4-acetyl-1-[2-methyl-4-({(1R)-1-[2-methyl-3-(trifluoromethyl)phenyl]ethyl}amino)pyrido[2,3-d]pyrimidin-6-yl]piperazin-2-one] | 2.53 nM
CC(=O)N1CC=C(c2cnc3nc(C)nc(N[C@H](C)c4cccc(C(F)(F)F)c4C)c3c2)C1 [Example 30, 1-{3-[2-methyl-4-({(1R)-1-[2-methyl-3-(trifluoromethyl)phenyl]ethyl}amino)pyrido[2,3-d]pyrimidin-6-yl]-2,5-dihydro-1H-pyrrol-1-yl}ethan-1-one] | 38 nM
CC(=O)N1CC=C(c2cc3c(N[C@H](C)c4cccc(C(F)F)c4F)nc(C)nc3nc2C)CC1 [Example 56, 1-{4-[4-({(1R)-1-[3-(difluoromethyl)-2-fluorophenyl]ethyl}amino)-2,7-dimethylpyrido[2,3-d]pyrimidin-6-yl]-3,6-dihydropyridin-1(2H)-yl}ethan-1-one] | 14.1 nM
CC(=O)N1C[C@@H]2C[C@H]1CN2c1cnc2nc(C)nc(N[C@H](C)c3cccc(C(F)(F)F)c3C)c2c1 [Example 14, 1-{(1S,4S)-5-[2-methyl-4-({(1R)-1-[2-methyl-3-(trifluoromethyl)phenyl]ethyl}amino)pyrido[2,3-d]pyrimidin-6-yl]-2,5-diazabicyclo[2.2.1]heptan-2-yl}ethan-1-one] | 5.15 nM
CC(=O)N1CCC(c2cnc3ncnc(N[C@H](C)c4cccc(C(F)(F)F)c4)c3c2)CC1 [Example 9, 1-{4-[4-({(1R)-1-[3-(trifluoromethyl)phenyl]ethyl}amino)pyrido[2,3-d]pyrimidin-6-yl]piperidin-1-yl}ethan-1-one] | 64.3 nM
CC(=O)N1CC2(C1)CN(c1cc3c(N[C@H](C)c4cccc(C(F)F)c4F)nc(C)nc3nc1C(F)(F)F)C2 [Example 69, 1-{6-[4-({(1R)-1-[3-(difluoromethyl)-2-fluorophenyl]ethyl}amino)-2-methyl-7-(trifluoromethyl)pyrido[2,3-d]pyrimidin-6-yl]-2,6-diazaspiro[3.3]heptan-2-yl}ethan-1-one] | 29.5 nM
CC(=O)N1CCN(c2cc3c(N[C@H](C)c4cccc(C(F)(F)F)c4C)nc(C)nc3nc2C)C(=O)C1 [Example 68, 4-acetyl-1-[2,7-dimethyl-4-({(1R)-1-[2-methyl-3-(trifluoromethyl)phenyl]ethyl}amino)pyrido[2,3-d]pyrimidin-6-yl]piperazin-2-one] | 2.93 nM
CC(=O)N1CC2(C1)CN(c1cnc3nc(C)nc(N[C@H](C)c4cccc(C(F)(F)C(C)(C)O)c4F)c3c1)C2 [Example 54, 1-{6-[4-({(1R)-1-[3-(1,1-difluoro-2-hydroxy-2-methylpropyl)-2-fluorophenyl]ethyl}amino)-2-methylpyrido[2,3-d]pyrimidin-6-yl]-2,6-diazaspiro[3.3]heptan-2-yl}ethan-1-one] | 3.52 nM
CC(=O)N1CCC(c2cnc3nc(C)nc(N[C@H](C)c4cccc(C(F)F)c4F)c3c2)CC1 [Example 44, 1-{4-[4-({(1R)-1-[3-(difluoromethyl)-2-fluorophenyl]ethyl}amino)-2-methylpyrido[2,3-d]pyrimidin-6-yl]piperidin-1-yl}ethan-1-one] | 8.43 nM
Cc1nc(N[C@H](C)c2cccc(C(F)(F)F)c2C)c2cc(N3CCN(C)CC3)cnc2n1 [Example 15, 2-methyl-6-(4-methylpiperazin-1-yl)—N-{(1R)-1-[2-methyl-3-(trifluoromethyl)phenyl]ethyl}pyrido[2,3-d]pyrimidin-4-amine] | 10.6 nM
C[C@@H](Nc1ncnc2ncc(Br)cc12)c1cccc(C(F)(F)F)c1 [Example 1, 6-bromo-N-{(1R)-1-[3-(trifluoromethyl)phenyl]ethyl}pyrido[2,3-d]pyrimidin-4-amine] | 409 nM
CC(=O)N1CCN(c2cnc3nc(C)nc(N[C@H](C)c4cccc(C(F)(F)C(C)(C)O)c4F)c3c2)CC1 [Example 53, 1-{4-[4-({(1R)-1-[3-(1,1-difluoro-2-hydroxy-2-methylpropyl)-2-fluorophenyl]ethyl}amino)-2-methylpyrido[2,3-d]pyrimidin-6-yl]piperazin-1-yl}ethan-1-one] | 3.34 nM
CC(=O)N1CCN(c2cnc3ncnc(N[C@H](C)c4cccc(C(F)(F)F)c4C)c3c2)CC1 [Example 10, 1-{4-[4-({(1R)-1-[2-methyl-3-(trifluoromethyl)phenyl]ethyl}amino)pyrido[2,3-d]pyrimidin-6-yl]piperazin-1-yl}ethan-1-one] | 3.55 nM
CC(=O)N1CCC(c2cc3c(N[C@H](C)c4cccc(C(F)(F)C(C)(C)O)c4F)nc(C)nc3nc2C)CC1 [Example 66, 1-{4-[4-({(1R)-1-[3-(1,1-difluoro-2-hydroxy-2-methylpropyl)-2-fluorophenyl]ethyl}amino)-2,7-dimethylpyrido[2,3-d]pyrimidin-6-yl]piperidin-1-yl}ethan-1-one] | 3.18 nM
Cc1nc(N[C@H](C)c2cccc(C(F)(F)F)c2C)c2cc(N(C)S(C)(=O)=O)cnc2n1 [Example 33, N-methyl-N-[2-methyl-4-({(1R)-1-[2-methyl-3-(trifluoromethyl)phenyl]ethyl}amino)pyrido[2,3-d]pyrimidin-6-yl]methanesulfonamide] | 27.9 nM
CC(=O)N1CC2(C1)CN(c1cc3c(N[C@H](C)c4cccc(C(F)(F)C(C)(C)O)c4F)nc(C)nc3nc1C)C2 [Example 60, 1-{6-[4-({(1R)-1-[3-(1,1-difluoro-2-hydroxy-2-methylpropyl)-2-fluorophenyl]ethyl}amino)-2,7-dimethylpyrido[2,3-d]pyrimidin-6-yl]-2,6-diazaspiro[3.3]heptan-2-yl}ethan-1-one] | 3410 nM
